From ChEMBL document CHEMBL6177950, “Discovery of potent and selective CDK2 inhibitors with high safety and favorable bioavailability for the treatment of cancer” (Eur J Med Chem, 2025)
The source made the active and inactive calls. The calls are words filed in the database; no cut-off is given here.

Legend:
[1] = Cmax in Sprague-Dawley rat at 20 mg/kg, po by LC-MS/MS analysis; assay type: ADME, organism-based; conditions: in vivo
[2] = Acute toxicity in ICR mouse assessed as effect on liver weight at 1000 to 2500 mg/kg, po administered once for 14 days; assay type: organism-based; conditions: in vivo, 336 h, dose 1000-2500 mg/kg, time 14 day
[3] = Acute toxicity in ICR mouse assessed as effect on heart weight at 1000 to 2500 mg/kg, po administered once for 14 days; assay type: organism-based; conditions: in vivo, 336 h, dose 1000-2500 mg/kg, time 14 day
[4] = Tmax in Sprague-Dawley rat at 20 mg/kg, po by LC-MS/MS analysis; assay type: ADME, organism-based; conditions: in vivo
[5] = Acute toxicity in ICR mouse assessed as increase in body weight at 1000 to 2500 mg/kg, po administered once and measured after 1 week; assay type: organism-based; conditions: in vivo, 168 h, dose 1000-2500 mg/kg, time 1 weeks
[6] = Half life in Sprague-Dawley rat at 2 mg/kg, iv by LC-MS/MS analysis; assay type: ADME, organism-based; conditions: in vivo
OVCAR-3 [7] = test: Induction of apoptosis in human OVCAR-3 cells assessed as early apoptotic cells at 1 uM incubated for 24 hrs by Annexin V-FITC/PI staining based flow cytometry analysis (reference value: 1.25%); assay type: functional
[8] = Acute toxicity in ICR mouse assessed as reduction in body weight at 1000 to 2500 mg/kg, po administered once and measured immediately; assay type: organism-based; conditions: in vivo, dose 1000-2500 mg/kg
MCF7 = test: Antiproliferative activity against wild type human MCF7 cells assessed as cell growth inhibition; assay type: functional, cell-based
OVCAR-3 [9] = test: Upregulation of apoptosis-related signaling pathway gene expression in human OVCAR-3 cells by GSEA; assay type: functional, cell-based
OVCAR-3 [10] = test: Induction of apoptosis in human OVCAR-3 cells assessed as reduction in Bcl2 expression incubated for 24 hrs by Western blot analysis; assay type: functional, cell-based
[11] = Clearance in Sprague-Dawley rat at 20 mg/kg, po by LC-MS/MS analysis; assay type: ADME, organism-based; conditions: in vivo
[12] = Acute toxicity in ICR mouse assessed as pathological changes in spleen at 1000 to 2500 mg/kg, po administered once for 14 days by H and E staining analysis; assay type: organism-based; conditions: in vivo, 336 h, dose 1000-2500 mg/kg, time 14 day
OVCAR-3 [13] = test: Induction of apoptosis in human OVCAR-3 cells assessed as necrotic cells at 1 uM incubated for 24 hrs by Annexin V-FITC/PI staining based flow cytometry analysis (reference value: 0.87%); assay type: functional
OVCAR-3 [14] = test: Induction of apoptosis in human OVCAR-3 cells assessed as viable cells at 2 uM incubated for 24 hrs by Annexin V-FITC/PI staining based flow cytometry analysis (reference value: 95.2%); assay type: functional; conditions: read-out: Activity
OVCAR-3 [15] = test: Antitumor activity against human OVCAR-3 cells xenografted in nude BALB/c mouse model assessed as tumor growth inhibition administered as po once daily for 21 days; assay type: functional, organism-based; conditions: dose 40-80 mg/kg, time 21.0 day
OVCAR-3 [16] = test: Antitumor activity against human OVCAR-3 cells xenografted in nude BALB/c mouse assessed as suppression of tumor cell proliferation at 40 to 80 mg/kg, po administered once daily for 21 days by Ki67 staining based analysis; assay type: functional, organism-based; conditions: dose 40-80 mg/kg, time 21.0 day
[17] = target: Cyclin-dependent kinase 2/cyclin E1 (Homo sapiens, UniProt P24941); test: Inhibition of CDK2/Cyclin E1 (unknown origin) pre-incubated for 10 mins followed by ATP/substrate addition and measured after 60 mins by ADP-Glo assay; assay type: protein-complex assay
OVCAR-3 [18] = test: Induction of cell cycle arrest in human OVCAR-3 cells assessed as accumulation of cells at G2 phase at 2 uM incubated for 24 hrs by flow cytometry analysis (reference value: 21.77%); assay type: functional
OVCAR-3 [19] = test: Antitumor activity against human OVCAR-3 cells xenografted in nude BALB/c mouse assessed as reduction in tumor cells at 40 to 80 mg/kg, po administered once daily for 21 days by H and E staining analysis; assay type: functional, organism-based; conditions: dose 40-80 mg/kg, time 21.0 day
[20] = Oral bioavailability in Sprague-Dawley rat at 20 mg/kg by LC-MS/MS analysis; assay type: ADME, organism-based; conditions: in vivo

SMILES: CCC(C)n1cc(-c2nc(NC3CCN(S(=O)(=O)C4CC4)CC3)ncc2F)cc(F)c1=O (stereo unspecified)
- Cmax [1]: 2130 ng/mL
- Activity [2]: Non-toxic
- Activity [3]: Non-toxic
- Tmax [4]: 30 min
- Activity [5]: Non-toxic
- half-life [6]: 55.8 min
- Activity (OVCAR-3 [7]): 2.65%
- Activity [8]: Toxic
- IC50 (MCF7): 186 nM
- Activity (OVCAR-3 [9]): Active
- Activity (OVCAR-3 [10]): Dose-dependent-effect
- CL/F [11]: 29.2 mL/min/kg
- Activity [12]: Non-toxic
- Activity (OVCAR-3 [13]): 5.01%
- viability at 2 µM (OVCAR-3 [14]): 79.3%
- Activity (OVCAR-3 [15]): Dose-dependent-effect
- Activity (OVCAR-3 [16]): Active
- IC50 [17]: 0.9 nM
- Activity (OVCAR-3 [18]): 2.09%
- Activity (OVCAR-3 [19]): Active
- bioavailability [20]: 79.5%
